According to US8871933B2, “Purified pyrroloquinolinyl-pyrrolidine-2,5-dione compositions and methods for preparing and using same” (ArQule, Inc., priority 2009, dated 2014):
Values after ≈ are worked out from the molar mass of the structure shown. One block for each compound: values may come before it.

What was measured:
[1] = biological target: Recombinant Protein Kinase C; assay: Protein Kinase C kinase assay (Histone H1, 32P-ATP, autoradiography); assay type: biochemical; parameters: dose or concentration left out as unconfirmed; conditions: for 15 minutes at room temperature
Experimental: Recombinant Protein Kinase C (Calbiochem) (100 ng) was incubated with (±)-cis-3-(5,6-dihydro-4H-pyrrolo[3,2,1-ij]quinolin-1-yl)-4-(1H-indol-3-yl)pyrrolidine-2,5-dione or (±)-trans-3-(5,6-dihydro-4H-pyrrolo[3,2,1-ij]quinolin-1-yl)-4-(1H-indol-3-yl)pyrrolidine-2,5-dione at […] for 15 minutes at room temperature. Subsequently, a radioactive labeling mix in kinase buffer (20 mM Tris-HCl pH 7.5, 10 mM MgCl2) containing 20 μM ATP, 0.2 μCi/μl γ^32P-ATP, 0.2 μg/μl Histone H1 (Upstate Biotechnology/Millipore, Bedford, Mass.) was added to each sample. The kinase reaction was carried out for 5 minutes at room temperature. Reaction products were analyzed by 12% SDS-PAGE and autoradiography.

[2] = test system: MDA-MB-231 cells or MIA PaCa-2 (PACA-2) cells; assay: Cell survival in six-well plates, Wright-Giemsa stain; assay type: cell-based; conditions: Homo sapiens; 0.1-2 μM, 10-15 days; MDA-MB-231 or Paca-2 cells, cell line of the IC50 not stated
Experimental: Exponentially growing MDA-MB-231 cells or MIA PaCa-2 (also known as PACA-2) cells were seeded at 1,000 cells per well in six-well plates and allowed to attach for 24 hours. MDA-MB-231 and MIA PaCa-2 cells were cultured in DMEM supplemented with 10% (v/v) fetal bovine serum (FBS) and 5 ml Penicillin/Streptomycin at 37° C. in 5% CO2. MDA-MB-231 and MIA PaCa-2 were established in estrogen receptor-negative human breast cancer and pancreatic carcinoma cell lines, respectively. (±)-cis-3-(5,6-dihydro-4H-pyrrolo[3,2,1-ij]quinolin-1-yl)-4-(1H-indol-3-yl)pyrrolidine-2,5-dione or (±)-trans-3-(5,6-dihydro-4H-pyrrolo[3,2,1-ij]quinolin-1-yl)-4-(1H-indol-3-yl)pyrrolidine-2,5-dione were each dissolved at a concentration of 10 mM in DMSO, and separately added to cells at a concentration of 0.1, 0.25, 0.5, 1 or 2 μM. Control plates received DMSO alone, at the same percentage of total culture volume as that administered in conjunction with the highest concentration of drug. Cell cultures were observed daily for 10-15 days, then fixed and stained with modified Wright-Giemsa stain (Sigma). Treatment with (±)-cis-3-(5,6-dihydro-4H-pyrrolo[3,2,1-ij]quinolin-1-yl)-4-(1H-indol-3-yl)pyrrolidine-2,5-dione or (±)-trans-3-(5,6-dihydro-4H-pyrrolo[3,2,1-ij]quinolin-1-yl)-4-(1H-indol-3-yl)pyrrolidine-2,5-dione results in cell death of MDA-MB-231 cells or Paca-2 cells. See, e.g., FIG. 2.

c-Met = c-Met (Homo sapiens, UniProt P08581); assay: c-Met phosphorylation in MDA-MB-231 cells, basal and HGF-induced (Western blot); assay type: cell-based; parameters: Whole cell extracts were prepared in lysis buffer; endogenous in cells; host or cells: MDA-MB-231; conditions: 20 μM
Chain of c-Met (P08581 25-1390): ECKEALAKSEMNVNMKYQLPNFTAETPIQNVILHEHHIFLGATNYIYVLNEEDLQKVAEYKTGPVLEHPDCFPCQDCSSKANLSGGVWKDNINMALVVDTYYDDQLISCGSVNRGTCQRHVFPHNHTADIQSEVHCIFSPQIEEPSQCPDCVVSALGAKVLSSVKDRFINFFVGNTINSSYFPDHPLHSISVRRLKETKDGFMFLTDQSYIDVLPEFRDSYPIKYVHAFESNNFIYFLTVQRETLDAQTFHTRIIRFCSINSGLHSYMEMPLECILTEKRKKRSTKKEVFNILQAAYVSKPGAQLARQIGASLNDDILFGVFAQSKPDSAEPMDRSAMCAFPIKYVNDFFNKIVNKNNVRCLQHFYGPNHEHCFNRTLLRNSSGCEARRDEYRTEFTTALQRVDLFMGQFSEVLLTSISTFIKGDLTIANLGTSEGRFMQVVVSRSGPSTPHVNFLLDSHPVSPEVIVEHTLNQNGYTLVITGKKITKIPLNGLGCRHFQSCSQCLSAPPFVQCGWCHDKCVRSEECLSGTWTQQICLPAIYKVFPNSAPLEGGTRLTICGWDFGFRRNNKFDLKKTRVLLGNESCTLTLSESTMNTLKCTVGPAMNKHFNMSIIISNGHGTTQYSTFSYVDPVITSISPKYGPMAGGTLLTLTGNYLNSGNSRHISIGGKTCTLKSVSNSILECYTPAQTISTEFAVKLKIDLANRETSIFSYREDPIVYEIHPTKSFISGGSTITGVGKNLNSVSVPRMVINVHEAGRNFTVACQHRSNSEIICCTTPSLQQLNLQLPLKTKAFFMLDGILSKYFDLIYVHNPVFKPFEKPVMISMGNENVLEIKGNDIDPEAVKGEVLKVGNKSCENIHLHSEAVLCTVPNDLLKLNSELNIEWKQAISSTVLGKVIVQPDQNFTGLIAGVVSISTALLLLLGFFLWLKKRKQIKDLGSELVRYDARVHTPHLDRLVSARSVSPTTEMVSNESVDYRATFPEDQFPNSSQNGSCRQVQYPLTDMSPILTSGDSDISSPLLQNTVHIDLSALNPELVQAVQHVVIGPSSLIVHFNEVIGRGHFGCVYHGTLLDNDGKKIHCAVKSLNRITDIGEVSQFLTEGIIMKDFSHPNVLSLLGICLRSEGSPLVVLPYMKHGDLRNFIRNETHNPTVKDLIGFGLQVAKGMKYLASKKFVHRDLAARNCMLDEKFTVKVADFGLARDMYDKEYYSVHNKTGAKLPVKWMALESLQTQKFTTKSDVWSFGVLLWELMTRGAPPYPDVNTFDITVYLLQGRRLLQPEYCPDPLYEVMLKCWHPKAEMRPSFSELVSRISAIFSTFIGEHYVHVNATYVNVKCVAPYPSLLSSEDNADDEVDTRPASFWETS
Experimental: MDA-MB-231 cells were serum-deprived overnight (16 hours) in the absence or in the presence of the indicated concentrations of the separate enantiomers (+)-trans-3-(5,6-dihydro-4H-pyrrolo[3,2,1-ij]quinolin-1-yl)-4-(1H-indol-3-yl)pyrrolidine-2,5-dione and (−)-trans-3-(5,6-dihydro-4H-pyrrolo[3,2,1-ij]quinolin-1-yl)-4-(1H-indol-3-yl)pyrrolidine-2,5-dione. Cells were treated with 100 ng/ml recombinant human Hepatocyte Growth Factor/Scatter Factor (HGF/SF) (R&D Systems #294-HG) for 10 minutes. Whole cell extracts were prepared in lysis buffer (20 mM Tris-HCl pH 7.5, 150 mM NaCl, 1 mM Na2EDTA, 1 mM EGTA, 1% Triton X-100, 2.5 mM sodium pyrophosphate, 1 mM beta-glycerophosphate, 1 mM Na3VO4, 1 μg/ml leupeptin, 1 mM phenylmethylsulfonyl fluoride) and sonicated. Protein concentration was measured by Bradford assay using the BioRad reagent (BioRad, Hercules, Calif.), according to the manufacturer's directions. Samples ([…] of protein) were resolved by 8% SDS-PAGE under reducing conditions and transferred onto a PVDF membrane (BioRad). […] Proteins were detected by incubation overnight at 4° C. in TBS-T with 5% milk and either a polyclonal antibody against phosphorylated c-Met (#3121) or a monoclonal antibody against β-actin (A-5441) (Sigma), which was used as a control for total protein loading. […]

MDA-MB-231 cells = assay: Colony formation / surviving fraction assay; assay type: cell-based; conditions: Homo sapiens, two days incubation, colonies counted two weeks later, read-out: IC50 (surviving fraction equaled 50)
Experimental: MDA-MB-231 cells (ATCC #HTB-26), grown in DMEM plus 15% heat inactivated fetal bovine serum plus 10 mM HEPES pH 7.5, were plated in 60 mm^2 plates (2×10^5 cells per plate). After two days candidate compounds in DMSO at various concentrations were diluted in media and added to individual plates such that the final DMSO concentration in the cell culture media was 0.1%. After two days incubation the culture was trypsinized, cells were washed with media, counted using a hemocytometer and 500 cells, including cell bodies, were plated in 100 mm^2 plates in media. Two weeks later the media was removed and the cell colonies were fixed with methanol for 10 minutes, stained with 1% crystal violet for 10 minutes, washed with water and air dried. Cell colonies were visually counted when there were greater then 50 cells present per colony. Plating efficiency was defined as the average number of colonies formed divided by 500. The surviving fraction was defined as the plating efficiency of a candidate compound divided by the plating efficiency of DMSO multiplied by 100. For candidate compound titrations, the IC50 value was determined by fitting the equation y=Ae^Bx to the data points and extrapolating the concentration where surviving fraction equaled 50. […]

[3] = Interconversion experiments (thermodynamic stability of polymorphs); assay type: physicochemical
Experimental: Form 1 is orthorhombic and contains four molecules of (−)-trans-3-(5,6-dihydro-4H-pyrrolo[3,2,1-ij]quinolin-1-yl)-4-(1H-indol-3-yl)pyrrolidine-2,5-dione per cell. Form 1 has a melting point of ˜218° C. recorded in DSC (See, FIG. 16).
The two polymorphs can be interconverted when proper conditions are used to control the crystallization process. Form 2 can be obtained by dissolving Form 1 in methanol, seeding with Form 2 and evaporating the mixture to dryness by rotary evaporation. The successful conversion was determined to be Form 2 by IR analysis and corroborated by XRPD analysis.

physchem = assay type: physicochemical
Experimental: Form 1 and Form 2 have different equilibrium solubilities: Form 2=0.61 mg/mL and Form 1=0.51 mg/mL.

[4] = Storage stability of Form 2; assay type: physicochemical; conditions: 40° C./75% RH for up to six months and 25° C./60% RH for up to 12 months; multiple batches

equilibrium solubilities (physchem): 0.51 mg/mL
Compound: O=C1NC(=O)[C@@H](c2cn3c4c(cccc24)CCC3)[C@@H]1c1c[nH]c2ccccc12 [Form 1, (−)-trans-3-(5,6-dihydro-4H-pyrrolo[3,2,1-ij]quinolin-1-yl)-4-(1H-indol-3-yl)pyrrolidine-2,5-dione]
thermodynamic stability [3]: more thermodynamically stable than Form 2

solubility thermodynamic (physchem; thermodynamic from solid, equilibrium solubilities): 610 µg/mL (≈ 1650 µM)
Compound: O=C1NC(=O)[C@@H](c2cn3c4c(cccc24)CCC3)[C@@H]1c1c[nH]c2ccccc12 [Form 2, (−)-trans-3-(5,6-dihydro-4H-pyrrolo[3,2,1-ij]quinolin-1-yl)-4-(1H-indol-3-yl)pyrrolidine-2,5-dione]
change in crystalline form or purity upon storage [4]: No discernable change in crystalline form or purity

Second part, the compound before the results:

Compound: O=C1NC(=O)[C@@H](c2cn3c4c(cccc24)CCC3)[C@H]1c1c[nH]c2ccccc12 (racemic) [(±)-cis-3-(5,6-dihydro-4H-pyrrolo[3,2,1-ij]quinolin-1-yl)-4-(1H-indol-3-yl)pyrrolidine-2,5-dione]
kinase activity in comparison to treatment with carrier alone [1]: did not reduce kinase activity
IC50 [2]: 0.5 µM

Compound: O=C1NC(=O)[C@@H](c2cn3c4c(cccc24)CCC3)[C@@H]1c1c[nH]c2ccccc12 (racemic) [(±)-trans-3-(5,6-dihydro-4H-pyrrolo[3,2,1-ij]quinolin-1-yl)-4-(1H-indol-3-yl)pyrrolidine-2,5-dione]
kinase activity in comparison to treatment with carrier alone [1]: did not reduce kinase activity
IC50 [2]: 0.5 µM

Compound: O=C1NC(=O)[C@@H](c2cn3c4c(cccc24)CCC3)[C@@H]1c1c[nH]c2ccccc12 [(+)-trans-3-(5,6-dihydro-4H-pyrrolo[3,2,1-ij]quinolin-1-yl)-4-(1H-indol-3-yl)pyrrolidine-2,5-dione]
inhibitory effect on c-Met phosphorylation (c-Met): only a minimum inhibitory effect
IC50 (MDA-MB-231 cells): 4.1 µM
